Results on 13 compounds are retold here after patent US20260274814A1, “THIENYL COMPOUNDS FOR THE TREATMENT OF A CENTRAL NERVOUS SYSTEM DISEASE OR DISORDER” (Coreterra Therapeutics, Inc., priority 2023, published 2026).

Structures can show the parent of a compound that is named as a salt.

This experiment concerns mice. Briefly: Neuropharmacological Assay (SmartCube): automated behavioral signature of compound-treated mice compared with a database of reference drug classes. Format: in vivo. Particulars: for AD / AG / AN / AP / CE / HL / MS / PS / SH / AX / UK: SmartCube class probability, 3.0 mg/kg i.p., 15 min before test; for MED / minimal effective dose: minimal effective dose: dose having 45% or more total activity in SmartCube, i.p., if only one dose tested, that dose is shown; for minimal effective dose: Mus musculus, ip, read-out: MED. In short, it runs like this: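 i.p. dosing 15 min pre-test (NMP/PEG/propylene glycol vehicle); 3 doses, 3.0 mg/kg reported. Output = class-match probability per behavioural effect. Potency runs 0.3, 1, 3, 10 mpk (range adjusted as needed); MED = dose with ≥45% total activity.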

As for `c1scc2c1CCC(NCC1CC1)C2` (single isomer, unassigned) [Compound 158, N-(cyclopropylmethyl)-4,5,6,7-tetrahydro-2-benzothiophen-5-amine hydrochloride], the AD result is listed as “ND (^ <4%)”, the AG entry is listed as “ND (^ <4%)”, the AN result was “ND (^ <4%)” and the AP result was “ND (^ <4%)”. Besides, the CE result is given as “ND (^ <4%)”, the HL result was “ND (^ <4%)”, the MS result is “ND (^ <4%)” and the PS result is reported as “ND (^ <4%)”. Further, the SH entry is on record as “ND (^ <4%)”. In addition, where the note is “hydrochloride, 3 mg/kg”, the AX entry is given as “++++ (≥74%)” and the UK entry is given as “ND (^ <4%)”. The same compound displayed an MED (hydrochloride) of 1 mpk.
With `c1scc2c1CCC(NCC1CC1)C2` (single isomer, unassigned) [Compound 159, N-(cyclopropylmethyl)-4,5,6,7-tetrahydro-2-benzothiophen-5-amine hydrochloride], the AD entry was “ND (^ <4%)”, the AG result is “ND (^ <4%)”, the AN result is “ND (^ <4%)” and the AP result is “ND (^ <4%)”. Besides, the CE entry is “ND (^ <4%)”, the HL entry was “ND (^ <4%)”, the MS entry is given as “ND (^ <4%)” and the PS entry was “ND (^ <4%)”. In addition, the SH result was “ND (^ <4%)”. Also, for the setting “hydrochloride, 3 mg/kg”, the AX result is on record as “ND (^ <4%)” and the UK entry is reported as “+ (≥4%)”. Where the note is “hydrochloride”, this compound came in with an MED above 3 mpk.
With `c1scc2c1CCC(NC1CCC1)C2` (single isomer, unassigned) [Compound 160, N-cyclobutyl-4,5,6,7-tetrahydro-2-benzothiophen-5-amine hydrochloride], the minimal effective dose was above 3 mg/kg, the AD result is “ND (^ <4%)”, the AG result is “ND (^ <4%)” and the AN result is given as “ND (^ <4%)”. Also, the AP result is reported as “ND (^ <4%)”, the AX entry was “ND (^ <4%)”, the CE result is “ND (^ <4%)” and the HL entry is reported as “ND (^ <4%)”. The MS entry is on record as “ND (^ <4%)”, the PS entry was “ND (^ <4%)” and the SH entry is on record as “ND (^ <4%)”. Besides, the UK entry (hydrochloride, 3 mg/kg) is recorded as “+ (≥4%)”.
For the compound `c1scc2c1CCC(NC1CCC1)C2` (single isomer, unassigned) [Compound 161, N-cyclobutyl-4,5,6,7-tetrahydro-2-benzothiophen-5-amine hydrochloride], the AD entry is listed as “ND (^ <4%)”, the AG result was “ND (^ <4%)”, the AN result was “ND (^ <4%)” and the AP entry is “ND (^ <4%)”. Moreover, the AX entry is listed as “ND (^ <4%)”, the CE result was “ND (^ <4%)”, the HL entry was “ND (^ <4%)” and the MS result is recorded as “ND (^ <4%)”. Also, the PS result was “ND (^ <4%)”, the SH entry is “ND (^ <4%)” and the MED is on record as above 3 mpk. The UK entry (hydrochloride, 3 mg/kg) is reported as “ND (^ <4%)”.
For `Cc1scc2c1CC(N)CC2` (single isomer, unassigned) [Compound 162, 3-methyl-4,5,6,7-tetrahydro-2-benzothiophen-5-amine hydrochloride], the minimal effective dose came out at 3 mg/kg, the AD result is reported as “ND (^ <4%)”, the AG result is “ND (^ <4%)” and the AN entry is “ND (^ <4%)”. The AP entry was “ND (^ <4%)”, the CE result is reported as “ND (^ <4%)”, the HL entry is “ND (^ <4%)” and the MS entry is “ND (^ <4%)”. In addition, the PS result is on record as “ND (^ <4%)”, the SH result is “ND (^ <4%)” and the UK result is “+ (≥4%)”. Moreover, where the note is “hydrochloride, 3 mg/kg”, the AX result is “+++ (≥49%)”.
Regarding `Cc1scc2c1CC(N)CC2` (single isomer, unassigned) [Compound 163, 3-methyl-4,5,6,7-tetrahydro-2-benzothiophen-5-amine hydrochloride], the AD entry is “ND (^ <4%)”, the AG entry is given as “ND (^ <4%)”, the AN result is “ND (^ <4%)” and the AP result is given as “ND (^ <4%)”. Also, the CE result is listed as “ND (^ <4%)”, the HL result is “ND (^ <4%)”, the MS result is on record as “ND (^ <4%)” and the PS entry is listed as “ND (^ <4%)”. In addition, the SH entry is “ND (^ <4%)” and the UK result is “+ (≥4%)”. For the same compound, the AX entry (hydrochloride, 3 mg/kg) was “ND (^ <4%)”. Also, the MED (hydrochloride) is above 3 mpk.
As for `Cc1scc2c1CCC(N)C2` (single isomer, unassigned) [Compound 164, 1-methyl-4,5,6,7-tetrahydro-2-benzothiophen-5-amine hydrochloride], the minimal effective dose is 3 mg/kg, the AG result was “ND (^ <4%)”, the AN result is reported as “ND (^ <4%)” and the AP entry was “ND (^ <4%)”. Also, the AX entry is recorded as “ND (^ <4%)”, the CE entry is recorded as “ND (^ <4%)”, the MS result is on record as “ND (^ <4%)” and the PS result is “ND (^ <4%)”. The SH result is given as “ND (^ <4%)” and the UK entry is on record as “ND (^ <4%)”. For the same compound, where the note is “hydrochloride, 3 mg/kg”, the AD entry is given as “+++ (≥49%)” and the HL entry is listed as “ND (^ <4%)”.
For the compound `Cc1scc2c1CCC(N)C2` (single isomer, unassigned) [Compound 165, 1-methyl-4,5,6,7-tetrahydro-2-benzothiophen-5-amine hydrochloride], the AG entry is given as “ND (^ <4%)”, the AN result was “ND (^ <4%)”, the AP result is recorded as “ND (^ <4%)” and the AX entry is “ND (^ <4%)”. The CE result is listed as “ND (^ <4%)”, the MS result is listed as “ND (^ <4%)”, the PS result is on record as “ND (^ <4%)” and the SH entry is “ND (^ <4%)”. In addition, the UK entry was “ND (^ <4%)” and the MED is given as 3 mpk. Further, where the note is “hydrochloride, 3 mg/kg”, the AD entry was “ND (^ <4%)” and the HL result is given as “++++ (≥74%)”.
For the compound `NC1CCc2cscc2C1` (single isomer, unassigned) [Compound 166, 4,5,6,7-tetrahydro-2-benzothiophen-5-amine hydrochloride], the minimal effective dose came out at 1 mg/kg, the AG result is reported as “ND (^ <4%)”, the AN result was “ND (^ <4%)” and the AX result is reported as “+++ (≥49%)”. The CE result was “ND (^ <4%)”, the HL result is given as “ND (^ <4%)”, the MS result is listed as “ND (^ <4%)” and the SH result is listed as “ND (^ <4%)”. Further, the UK entry was “ND (^ <4%)”. In addition, for the setting “hydrochloride, 3 mg/kg”, the AD result was “+ (≥4%)”, the AP result is on record as “++ (≥24%)” and the PS result is recorded as “ND (^ <4%)”.
With `NC1CCc2cscc2C1` (single isomer, unassigned) [Compound 167, 4,5,6,7-tetrahydro-2-benzothiophen-5-amine hydrochloride], the AG entry was “ND (^ <4%)”, the AN entry is listed as “ND (^ <4%)”, the AX entry is “+++ (≥49%)” and the CE result is “ND (^ <4%)”. Further, the HL result was “ND (^ <4%)”, the MS result is reported as “ND (^ <4%)”, the SH entry is given as “ND (^ <4%)” and the UK entry is recorded as “ND (^ <4%)”. This compound also yielded an MED of 1 mpk. Also, under “hydrochloride, 3 mg/kg”, the AD entry is recorded as “++ (≥24%)”, the AP result is on record as “ND (^ <4%)” and the PS entry was “+ (≥4%)”.
`CNC1CCCc2cscc2C1` (single isomer, unassigned) [Compound 169, N-methyl-5,6,7,8-tetrahydro-4H-cyclohepta[c]thiophen-5-amine hydrochloride]: the AD result was “ND (^ <4%)”, the AG entry was “ND (^ <4%)”, the AN result was “ND (^ <4%)” and the CE entry was “ND (^ <4%)”. For the same compound, the HL entry is reported as “ND (^ <4%)”, the MS result was “ND (^ <4%)”, the PS result was “ND (^ <4%)” and the SH entry was “ND (^ <4%)”. Further, for the setting “hydrochloride, 3 mg/kg”, the AP entry is “ND (^ <4%)”, the AX result is “ND (^ <4%)” and the UK entry was “++ (≥24%)”. In addition, the MED (hydrochloride) is on record as 3 mpk.
As for `CNC1CCCc2cscc2C1` (single isomer, unassigned) [Compound 170, N-methyl-5,6,7,8-tetrahydro-4H-cyclohepta[c]thiophen-5-amine hydrochloride], the AD result was “ND (^ <4%)”, the AG entry was “ND (^ <4%)”, the AN result was “ND (^ <4%)” and the CE entry is “ND (^ <4%)”. For the same compound, the HL entry is reported as “ND (^ <4%)”, the MS entry is recorded as “ND (^ <4%)”, the PS entry is recorded as “ND (^ <4%)” and the SH entry is “ND (^ <4%)”. Under “hydrochloride, 3 mg/kg”, the AP entry is “+++ (≥49%)”, the AX entry is on record as “++ (≥24%)” and the UK entry was “ND (^ <4%)”. The same compound yielded an MED (hydrochloride) of 1 mpk.
As for `CCNC1CCc2cscc2C1` (single isomer, unassigned) [Compound 171, N-ethyl-4,5,6,7-tetrahydro-2-benzothiophen-5-amine hydrochloride], the AD entry is “ND (^ <4%)”, the AG entry is on record as “ND (^ <4%)”, the AN result was “ND (^ <4%)” and the CE result is “ND (^ <4%)”. Besides, the HL entry was “ND (^ <4%)”, the MS entry is given as “ND (^ <4%)”, the PS entry is on record as “ND (^ <4%)” and the SH result is listed as “ND (^ <4%)”. In addition, the UK entry is recorded as “ND (^ <4%)”. Besides, for the setting “hydrochloride, 3 mg/kg”, the AP result is reported as “++++ (≥74%)” and the AX result was “ND (^ <4%)”. Further, the MED (hydrochloride) was found to be 3 mpk.
